Test results taken from patent EP4796530A1 (Biocells (Beijing) Biotech Co., Ltd., priority 2023, dated 2025).

Tests used:
[1] = molecular target: T1, NLRP3 (Mus musculus, UniProt Q8R4B8); assay: Inhibition of APOE peptide-induced NLRP3 activation in J774A.1 cells, IL-1β release; assay type: cell-based; parameters: The mouse macrophage cell line J774A.1 was used, and LPS was used as the first signal; host or cells: J774A.1 mouse monocyte-macrophage cell line; details: J774.A1, 10 µM compound, 30 µg/mL APOE peptide
T1 sequence (Q8R4B8 whole entry): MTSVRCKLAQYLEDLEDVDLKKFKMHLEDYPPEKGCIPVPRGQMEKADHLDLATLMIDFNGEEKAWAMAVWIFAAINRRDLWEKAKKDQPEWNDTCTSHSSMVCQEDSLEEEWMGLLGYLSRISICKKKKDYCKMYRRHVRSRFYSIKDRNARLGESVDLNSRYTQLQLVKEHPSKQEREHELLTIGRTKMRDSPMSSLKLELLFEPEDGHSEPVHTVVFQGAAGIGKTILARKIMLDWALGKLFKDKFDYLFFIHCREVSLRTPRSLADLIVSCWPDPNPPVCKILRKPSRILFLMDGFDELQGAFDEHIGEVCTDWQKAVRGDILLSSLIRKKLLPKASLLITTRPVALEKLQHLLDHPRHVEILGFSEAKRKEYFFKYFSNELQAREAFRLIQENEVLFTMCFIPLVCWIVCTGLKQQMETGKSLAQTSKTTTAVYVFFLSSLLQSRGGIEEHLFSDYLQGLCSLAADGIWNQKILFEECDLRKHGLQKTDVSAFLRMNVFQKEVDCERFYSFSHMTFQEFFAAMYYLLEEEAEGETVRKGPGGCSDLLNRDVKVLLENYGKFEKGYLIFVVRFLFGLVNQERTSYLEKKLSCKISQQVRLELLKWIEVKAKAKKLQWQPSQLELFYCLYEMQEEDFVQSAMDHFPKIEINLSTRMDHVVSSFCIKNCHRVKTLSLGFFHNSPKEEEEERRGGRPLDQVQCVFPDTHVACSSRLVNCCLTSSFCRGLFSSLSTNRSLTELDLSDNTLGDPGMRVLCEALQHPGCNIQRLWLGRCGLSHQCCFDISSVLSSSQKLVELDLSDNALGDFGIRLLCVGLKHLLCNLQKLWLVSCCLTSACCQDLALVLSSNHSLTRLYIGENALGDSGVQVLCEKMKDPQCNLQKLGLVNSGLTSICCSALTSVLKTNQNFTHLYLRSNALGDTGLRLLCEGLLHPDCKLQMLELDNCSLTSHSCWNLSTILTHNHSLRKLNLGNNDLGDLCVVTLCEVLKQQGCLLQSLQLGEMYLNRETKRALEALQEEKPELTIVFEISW
Protocol: J774A.1 cells were plated in a 48-well plate at a density of 1.0×10^6 cells/mL, with 300 µL per well. Subsequently, NLRP3 was activated by APOE peptide. The cell culture medium comprises: DMEM (brand: Gibco, Cat. No.: C12430500) + 10% fetal bovine serum (brand: Gibco, Cat. No.: 10099-141) + 1% sodium pyruvate (brand: Gibco, Cat. No.: 11360-070) + 1% penicillin-streptomycin solution (brand: Solarbio, Cat. No.: P1400). The J774A.1 mouse monocyte-macrophage cell line was purchased from the Cell Resource Center of the Institute of Basic Medical Sciences of Chinese Academy of Medical Sciences (Resource No. 1101MOU-PUMC000222). APOE2/3 peptide 1-151 was obtained through recombinant protein expression and purification by Biocells (Beijing) Biotech Co., Ltd. The procedures were as follows: the sequence (SEQ ID NO: 1) shown below was inserted into the pET-28A plasmid and transformed into BL-21(DE3) expression strain; the expression of target protein was induced with IPTG at a low temperature; after collecting the bacteria via centrifugation, ultrasonic disruption was performed; and after centrifugation, the supernatant was purified by nickel ion affinity chromatography (AKTA pure), and then the product was concentrated by ultrafiltration and identified by BCA+protein electrophoresis. Sequence: [formula]
Experimental groups: a negative control group, an APOE treatment control group, and an example compound experimental group.
After the plated J774A.1 cells adhering to the plate, the culture medium was replaced. The culture medium of the APOE treatment control group was replaced with cell culture medium containing 30 µg/mL APOE peptide, the culture medium of the example compound experimental group was replaced with culture medium containing 30 µg/mL APOE peptide combined with the compounds, and the negative control group received cell culture medium. Then, all the groups were incubated overnight. 18 h later, the cell supernatants were collected for IL-1β detection.
Activation of NLRP3 by APOE peptide will result in release of mature IL-1β, and the release can be inhibited by NLRP3 inhibitors. Therefore, the relative change in the amount of IL-1β release may directly reflect NLRP3 inhibitory effect.
In this experimental example, effective inhibition refers to a reduction of 70% or more in the release amount, compared with the release amount of the positive control minus the negative control.

[2] = molecular target: T1, NLRP3; assay: Inhibition curves (IC50) of canonical NLRP3 activation in J774A.1 cells, IL-1β release; assay type: cell-based; parameters: The mouse macrophage cell line J774A.1 was used, and LPS was used as the first signal; host or cells: J774A.1 mouse monocyte-macrophage cell line; details: J774A.1 cell LPS+ATP activation model
Protocol: J774A.1 cells were plated in a 48-well plate at a density of 1.0×10^6 cells/mL, with 300 µL per well. Subsequently, NLRP3 was activated by LPS+ATP or LPS+Nig. […] ATP was purchased from Sigma, Cat. No.: L2654. Nig was purchased from Shanghai Yuanye Bio-Technology Co., Ltd., Cat. No.: S45490.
Experimental groups: a negative control group, an LPS-alone incubation control group, an LPS+ATP/Nig positive control group, and an example compound experimental group with different concentrations.
After the plated J774A.1 cells adhering to the plate, the culture medium was replaced. For all the groups except the negative control group, the culture medium was completely replaced with cell culture medium containing 1 µg/mL LPS. The negative control group received cell culture medium. Then, all the groups were incubated overnight. 18 h later, the culture medium was replaced again. The culture medium of the example compound experimental group was completely replaced with culture medium containing different concentrations of compounds; while the negative control group, the LPS-alone incubation control group, and the LPS+ATP/Nig positive control group received cell culture medium. 1 h later, the culture mediums of the LPS+ATP/Nig positive control group and the example compound experimental group with different concentrations were completely replaced with cell culture medium containing 5 mM ATP or 10 µM Nig. 1 h later, the cell supernatants were collected for IL-1β detection.
(§1) Therefore, the relative change in the amount of IL-1β release may directly reflect NLRP3 inhibitory effect. The inhibitory effect of the compounds varies with different concentrations, and based on this, an inhibition curve can be constructed, and the inhibitory effects of the compounds were assessed by IC50.

[3] = Rat plasma pharmacokinetics after intravenous administration (LC-MS); assay type: in vivo; details: SD rats, intravenous 2.5 mg/kg; for AUC: read-out: AUC from 1 to 1440 min
Protocol: SD rats were administered intravenously, at a dosage concentration of 2.5 mg/kg in each group. Blood was collected at the time points of 1 min, 30 min, 1 h, 2 h, 4 h, 6 h, and 24 h. The collected blood was centrifuged at 3000 rpm for 10 min at 4 °C to obtain plasma. Acetonitrile was added at a 1:3 volume ratio of plasma: acetonitrile to precipitate proteins. After centrifugation, the supernatant was collected and filtered. The concentration of the compound was detected using LC-MS (Agilent 1260-G6125, SIM mode).
Experimental groups: a vehicle control group, and a dosing group.

[4] = molecular target: NLRP3 (Homo sapiens, UniProt Q96P20); assay: Inhibition curves (IC50) of canonical NLRP3 activation (LPS+Nig) in THP-1 cells, IL-1β release; assay type: cell-based; parameters: host or cells: THP-1 human acute monocytic leukemia cell line, PMA-differentiated; details: THP-1 cell LPS+Nig activation model
Chain of NLRP3 (Homo sapiens, UniProt Q96P20) (Q96P20 whole entry): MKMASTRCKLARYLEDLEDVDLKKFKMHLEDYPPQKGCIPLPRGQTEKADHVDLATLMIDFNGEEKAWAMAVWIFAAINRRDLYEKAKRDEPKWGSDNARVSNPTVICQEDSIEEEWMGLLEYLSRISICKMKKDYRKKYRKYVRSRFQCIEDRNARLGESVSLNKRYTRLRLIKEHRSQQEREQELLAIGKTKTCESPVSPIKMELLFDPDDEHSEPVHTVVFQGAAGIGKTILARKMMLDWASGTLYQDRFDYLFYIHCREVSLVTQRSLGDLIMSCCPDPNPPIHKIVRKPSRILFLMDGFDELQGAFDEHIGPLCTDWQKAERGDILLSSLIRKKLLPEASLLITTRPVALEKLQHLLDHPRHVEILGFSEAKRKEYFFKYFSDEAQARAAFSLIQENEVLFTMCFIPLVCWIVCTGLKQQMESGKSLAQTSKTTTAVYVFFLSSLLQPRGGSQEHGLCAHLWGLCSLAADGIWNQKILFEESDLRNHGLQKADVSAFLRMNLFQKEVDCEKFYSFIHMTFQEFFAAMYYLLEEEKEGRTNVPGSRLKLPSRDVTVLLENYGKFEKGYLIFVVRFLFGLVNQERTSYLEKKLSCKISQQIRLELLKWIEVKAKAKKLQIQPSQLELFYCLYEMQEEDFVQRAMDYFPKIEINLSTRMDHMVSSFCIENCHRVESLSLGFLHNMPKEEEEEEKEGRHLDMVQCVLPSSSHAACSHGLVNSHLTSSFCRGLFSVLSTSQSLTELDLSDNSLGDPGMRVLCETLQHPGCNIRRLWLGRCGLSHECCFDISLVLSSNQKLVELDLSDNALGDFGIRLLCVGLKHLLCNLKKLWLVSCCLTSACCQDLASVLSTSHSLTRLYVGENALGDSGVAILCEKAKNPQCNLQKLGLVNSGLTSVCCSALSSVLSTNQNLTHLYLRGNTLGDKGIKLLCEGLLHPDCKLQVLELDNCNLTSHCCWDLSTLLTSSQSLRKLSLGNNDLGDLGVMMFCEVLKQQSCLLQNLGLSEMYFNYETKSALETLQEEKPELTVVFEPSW
Protocol: Nig was purchased from Shanghai Yuanye Bio-Technology Co., Ltd., Cat. No.: S45490.
The cells were incubated overnight.
as §1

[5] = molecular target: T1, NLRP3; assay: MSU-induced mouse peritonitis model: IL-1β in ascites; assay type: in vivo, C57BL/6J female mice; parameters: tissue National Institutes for Food and Drug Control; host or cells: C57BL/6J mice in vivo (serum IL-1β in A7, ascites IL-1β in A8); details: oral gavage; LPS 2 h later, MSU after another 2 h, ascites 30 min later
Protocol: Intraperitoneal injection of LPS and monosodium urate crystals (MSU) in mice can induce the activation of NLRP3 and release of large amounts of IL-1β. […] LPS was purchased from Sigma, Cat. No. L2654. MSU was purchased from Bide Pharmatech Co., Ltd., Cat. No. BD367417. C57BL/6J female mice aged 8 weeks were purchased from National Institutes for Food and Drug Control.
The mice were administered the example compounds via oral gavage. […] Ascites was collected 30 min later, and then IL-1β protein detection was performed on the ascites.
Experimental groups: a model group, and an example compound dosing group.

| Compound | inhibition at 10 µM [1] [%] | IC50 [2] [nM] | half-life [3] [min] | AUC [3] [ng·h/mL] | IC50 [4] [nM] | level of IL-1β in ascites compared with the model group [5] |
| --- | --- | --- | --- | --- | --- | --- |
| COc1ccc(S(=O)(=O)NC(=O)Nc2c3c(cc4c2CCC4)CCC3)cc1CN(C)C [Example 3, 3-((dimethylamino)methyl)-N-((1,2,3,5,6,7-hexahydro-s-indacen-4-yl)carbamoyl)-4-methoxybenzenesulfonamide] | ≥ 70 | 203 |  |  |  |  |
| CN(C)Cc1cc(S(=O)(=O)NC(=O)Nc2c3c(cc4c2CCC4)CCC3)ccc1O [Example 5, 3-((dimethylamino)methyl)-N-((1,2,3,5,6,7-hexahydro-s-indacen-4-yl)carbamoyl)-4-hydroxybenzenesulfonamide] | ≥ 70 | 224 | 116 | 33900 |  |  |
| CN(C)Cc1cccc(S(=O)(=O)NC(=O)Nc2c3c(cc4c2CCC4)CCC3)c1N [Example 19, 2-amino-3-((dimethylamino)methyl)-N-((1,2,3,5,6,7-hexahydro-s-indacen-4-yl)carbamoyl)benzenesulfonamide] | ≥ 70 | 114 | 231 | 56500 | 278 | significantly inhibited |
